target: recombinant human NSD2 (Homo sapiens (Human), UniProt O96028); assay: NSD2 inhibitory activity, modified RBC HotSpot HMT Assay (3H-SAM, oligonucleosome substrate); format: biochemical; conditions: recombinant human NSD2 (2 nM), chicken oligonucleosomes 0.05 mg/ml, 3H-SAM 1 μM, 1 hour at 30° C.
Method: Exemplary compounds were tested for NSD2 inhibitory activity using a modified RBC HotSpot HMT Assay.
A reaction mixture was prepared by adding oligonucleosomes from Chicken (0.05 mg/ml) to freshly prepared reaction buffer containing 50 mM Tris-HCl (pH 8.5), 50 mM NaCl, 5 mM MgCl2, 0.01% Brij35, 1 mM DTT, and 1% DMSO followed by the addition of recombinant human NSD2, (amino acids 2-end) with N-terminal His tag (2 nM; GenBank Accession No. NM_001042424; MW=155.5 kDa; expressed in Sf9 insect cells) and gentle mixing. The test compounds were diluted in DMSO, added to the reaction mixture in nanoliter amounts by using Acoustic Technology (Echo 550, LabCyte Inc. Sunnyvale, CA) and incubated for 20 minutes at room temperature. The reaction was initiated by the addition of S-Adenosyl-L-[methyl-^3H] methionine (3H-SAM; 1 μM), and the mixture was incubated for 1 hour at 30° C. The reaction mixture was delivered to filter paper and the methylated substrate was quantified by scintillation counting. Data analysis was performed using Excel and GraphPad Prism software for IC50 curve fits. For additional information on the histone methyltransferase assay, see, for example, Horiuchi K Y, et al., “Assay Development for Histone Methyltransferases,” Assay Drug Dev Technol. 2013 May; 11 (4): 227-36.

recombinant human NSD2, sequence (O96028 2-1365 limits assumed): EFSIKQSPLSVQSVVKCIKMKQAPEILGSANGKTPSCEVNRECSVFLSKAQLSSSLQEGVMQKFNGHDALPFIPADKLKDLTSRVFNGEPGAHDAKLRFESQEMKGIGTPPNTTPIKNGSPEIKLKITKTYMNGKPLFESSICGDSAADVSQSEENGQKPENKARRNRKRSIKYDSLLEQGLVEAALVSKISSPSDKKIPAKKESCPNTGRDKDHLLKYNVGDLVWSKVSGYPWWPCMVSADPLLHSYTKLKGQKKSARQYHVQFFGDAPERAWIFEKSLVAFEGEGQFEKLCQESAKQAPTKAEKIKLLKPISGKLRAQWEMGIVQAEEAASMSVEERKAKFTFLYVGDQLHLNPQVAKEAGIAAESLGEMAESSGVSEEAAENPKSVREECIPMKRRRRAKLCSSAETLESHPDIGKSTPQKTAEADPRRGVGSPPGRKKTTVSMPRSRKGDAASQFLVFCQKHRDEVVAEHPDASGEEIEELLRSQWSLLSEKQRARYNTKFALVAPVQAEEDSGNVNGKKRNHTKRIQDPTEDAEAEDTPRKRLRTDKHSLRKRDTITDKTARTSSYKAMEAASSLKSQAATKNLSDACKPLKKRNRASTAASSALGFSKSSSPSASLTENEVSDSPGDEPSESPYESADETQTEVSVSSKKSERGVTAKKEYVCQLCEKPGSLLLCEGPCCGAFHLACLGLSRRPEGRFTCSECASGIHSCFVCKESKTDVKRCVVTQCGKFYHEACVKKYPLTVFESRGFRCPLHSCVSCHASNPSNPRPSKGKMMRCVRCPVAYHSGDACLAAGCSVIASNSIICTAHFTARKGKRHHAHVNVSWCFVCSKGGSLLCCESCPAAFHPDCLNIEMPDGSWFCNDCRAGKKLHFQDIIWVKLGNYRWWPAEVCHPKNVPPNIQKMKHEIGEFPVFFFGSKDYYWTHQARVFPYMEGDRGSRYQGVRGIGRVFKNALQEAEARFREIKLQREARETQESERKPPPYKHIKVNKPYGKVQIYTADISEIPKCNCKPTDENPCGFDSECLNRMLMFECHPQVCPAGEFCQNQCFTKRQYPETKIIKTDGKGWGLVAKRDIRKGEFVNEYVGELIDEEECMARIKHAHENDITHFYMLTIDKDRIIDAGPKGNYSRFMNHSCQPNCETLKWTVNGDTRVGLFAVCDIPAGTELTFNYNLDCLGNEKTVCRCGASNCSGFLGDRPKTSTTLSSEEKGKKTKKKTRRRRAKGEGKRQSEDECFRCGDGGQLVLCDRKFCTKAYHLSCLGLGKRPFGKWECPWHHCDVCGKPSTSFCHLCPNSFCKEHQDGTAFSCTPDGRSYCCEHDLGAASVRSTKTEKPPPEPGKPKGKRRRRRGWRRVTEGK

Row | SMILES | IC50 [nM]
1 | COc1cc(F)c(-c2ccc(N3CCC[C@](N)([C@H](O)C(F)F)C3)c(Cn3cnc4c(N)ncnc43)c2)cc1F [Compound I-1, (S)-1-((R)-3-amino-1-(3-((6-amino-9H-purin-9-yl)methyl)-2′,5′-difluoro-4′-methoxy-[1,1′-biphenyl]-4-yl)piperidin-3-yl)-2,2-difluoroethan-1-ol] | 1 to 10
2 | COc1cc(F)c(-c2cnc(N3CCC[C@](N)([C@H](O)C(F)F)C3)c(Cn3cnc4c(N)ncnc43)c2)cc1F [II-1, (S)-1-((R)-3-amino-1-(3-((6-amino-9H-purin-9-yl)methyl)-5-(2,5-difluoro-4-methoxyphenyl)pyridin-2-yl)piperidin-3-yl)-2,2-difluoroethan-1-ol] | 10 to 1000
3 | COc1cc(F)c(-c2ccc(N3CCC[C@](N)([C@H](O)C(F)F)C3)c(Cn3cnc4c(N)ncnc43)n2)cc1F [III-1, (S)-1-((R)-3-amino-1-(2-((6-amino-9H-purin-9-yl)methyl)-6-(2,5-difluoro-4-methoxyphenyl)pyridin-3-yl)piperidin-3-yl)-2,2-difluoroethan-1-ol] | > 1000
